This series deals with Salmonella typhimurium. The series is described as follows: Mutagenic activity in Salmonella Typhimurium TA100 without metabolic activation. The note with it: salmonella enterica subsp. enterica serovar typhimurium. It is filed as toxicity, organism-based.

In the case of `O=C(O)C(Cl)(Cl)Br` [BROMODICHLOROACETIC ACID], the Activity result is on record as “Non-toxic”. As to `O=C(O)C(Br)(Br)Br` [TRIBROMOACETIC ACID], the Activity result is recorded as “Non-toxic”. In the case of `O=C(O)C(Cl)(Cl)Cl` [TRICHLOROACETIC ACID], the Activity result is “Non-toxic”.

For the origin of these results see ChEMBL document CHEMBL1150248, “Halogenated derivatives QSAR model using spectral moments to predict haloacetic acids (HAA) mutagenicity” (Bioorg Med Chem, 2008).
